This note sets out measurements from patent publication US20230159510A1, “NOVEL PRMT5 INHIBITORS” (AMGEN INC., priority 2020, published 2023).

One assay has as its target PRMT5/MEP50 (Homo sapiens, UniProt O14744). Nature of the assay: MTase-Glo methyl transferase assay, Method A (Histone H4 peptide, 1 µM MTA, 24 h pre-incubation). It counts as biochemical. The arrangement: made in house. The conditions noted are these: read-out: PRMT5 MTase Glo Ki (nM, Meth. A). In short, it runs like this: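 Luminescent SAH detection (MTase-Glo) after a 2 h room-temperature methylation of 1 µM biotinylated H4 (1-21) peptide by 10 nM PRMT5/MEP50 with 5 µM SAM, in 50 mM Tris pH 8.0.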

For a further assay, the system named is HCT116 WT cells. As to the kind of experiment: HCT116 proliferation assay, WT cells (CellTiter-Glo, 6 days). Format: cell-based. The conditions noted are these: Homo sapiens, HCT-116, 144 h, read-out: Prolif_HCT116-WT IC50. In short, it runs like this:
(§1)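 Readout is CellTiter-Glo luminescence after 6 days of drug exposure at 37 °C. Compounds tested as 8–9 point, 3-fold dilution series starting at 1 or 10 µM, versus DMSO only, on cells in RPMI 1640 with 10% FBS.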

In the next assay the test system is HCT116 MTAP null cells. Nature of the assay: HCT116 proliferation assay, MTAP null cells (CellTiter-Glo, 6 days). It counts as cell-based. The note with it: HCT116-MTAP null, 144 h, read-out: Protif_ HCT116-MTAP null IC50. In short, it runs like this: as §1

Some results are limits rather than exact numbers.

PRMT5/MEP50, sequence (O14744 whole entry): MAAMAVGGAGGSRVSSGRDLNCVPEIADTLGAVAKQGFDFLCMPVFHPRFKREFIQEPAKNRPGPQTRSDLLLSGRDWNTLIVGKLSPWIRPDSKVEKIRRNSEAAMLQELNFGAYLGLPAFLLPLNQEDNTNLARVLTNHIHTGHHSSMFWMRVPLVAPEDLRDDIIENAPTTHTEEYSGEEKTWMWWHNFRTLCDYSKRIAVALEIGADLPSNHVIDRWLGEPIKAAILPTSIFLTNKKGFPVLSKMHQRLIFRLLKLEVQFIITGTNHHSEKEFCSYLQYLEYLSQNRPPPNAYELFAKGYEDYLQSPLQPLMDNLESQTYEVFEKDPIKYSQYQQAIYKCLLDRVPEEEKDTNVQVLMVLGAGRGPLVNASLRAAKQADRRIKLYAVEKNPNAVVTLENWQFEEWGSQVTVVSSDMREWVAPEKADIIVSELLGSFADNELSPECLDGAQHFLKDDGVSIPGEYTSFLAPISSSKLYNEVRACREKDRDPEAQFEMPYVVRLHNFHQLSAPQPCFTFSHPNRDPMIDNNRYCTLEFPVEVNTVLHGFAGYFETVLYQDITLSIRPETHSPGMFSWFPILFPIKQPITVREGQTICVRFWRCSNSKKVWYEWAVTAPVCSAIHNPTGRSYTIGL
PRMT5/MEP50, sequence (Q9BQA1 whole entry partner): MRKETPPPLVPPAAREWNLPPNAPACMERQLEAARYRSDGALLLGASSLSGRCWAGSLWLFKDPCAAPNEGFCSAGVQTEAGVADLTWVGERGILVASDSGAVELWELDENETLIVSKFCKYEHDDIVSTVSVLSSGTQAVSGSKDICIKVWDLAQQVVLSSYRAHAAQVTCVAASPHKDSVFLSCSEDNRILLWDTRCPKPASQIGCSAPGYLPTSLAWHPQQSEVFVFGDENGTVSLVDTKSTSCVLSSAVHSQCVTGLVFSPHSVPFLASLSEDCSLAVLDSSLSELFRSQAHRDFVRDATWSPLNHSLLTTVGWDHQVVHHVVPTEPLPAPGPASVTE

`Cc1cc2cc(C(=O)N(Cc3ccc(C(F)(F)F)cn3)[C@@H](c3ncccn3)C3CC3)ccc2nc1N` (single isomer, unassigned) [Example 452]: the Ki at PRMT5/MEP50 came out at 0.06 nM. Further, the IC50 stood at 480 nM in the assay on HCT116 WT cells and 22 nM with HCT116 MTAP null cells.

With `Cc1cc2cc(C(=O)N(Cc3ccc(C#N)cn3)CC3CC3)c(F)cc2nc1N` [Example 307, 2-amino-N-((5-cyano-2-pyridinyl)methyl)-N-(cyclopropylmethyl)-7-fluoro-3-methyl-6-quinolinecarboxamide], at PRMT5/MEP50, the Ki is 1.88 nM. The IC50 came out at 7660 nM with HCT116 WT cells and 349 nM with HCT116 MTAP null cells.

As to `Cc1cc2cc(C(=O)N(Cc3ccc(S(C)(=O)=O)cn3)[C@H](C)c3ncccc3F)ccc2nc1N` [Example 541, (R)-2-amino-N-((5-(methylsulfonyl)pyridin-2-yl)methyl)-N-(1-(3-fluoropyridin-2-yl)ethyl)-3-methylquinoline-6-carboxamide], the Ki on PRMT5/MEP50 came to 0.13 nM. Besides, the IC50 with HCT116 WT cells amounted to 4140 nM; with HCT116 MTAP null cells, 198 nM.

For the compound `Cc1cc2cc(C(=O)N(Cc3ccc(C(F)(F)F)cn3)Cc3ncc(F)cc3F)ccc2nc1N` [Example 384, 2-amino-N-((3,5-difluoro-2-pyridinyl)methyl)-3-methyl-N-((5-(trifluoromethyl)-2-pyridinyl)methyl)-6-quinolinecarboxamide], the inhibition constant (Ki) at PRMT5/MEP50 came out at 0.01 nM. Besides, the half-inhibitory concentration (IC50) with HCT116 WT cells came to 5100 nM; in the assay on HCT116 MTAP null cells it was 177 nM.

For the compound `Cc1cc2cc(C(=O)N(Cc3ccc(C(F)(F)F)cn3)[C@H](C)c3cnccn3)cnc2nc1N` [Example 538, 7-amino-6-methyl-N-((1R)-1-(2-pyrazinyl)ethyl)-N-((5-(trifluoromethyl)-2-pyridinyl)methyl)-1,8-naphthyridine-3-carboxamide], the Ki at PRMT5/MEP50 stood at 0.68 nM. Further, the figures for the IC50 in the assay on HCT116 WT cells and in the assay on HCT116 MTAP null cells were over 10000 nM and 732 nM, respectively.

On to `Cc1cc2cc(C(=O)N(Cc3ccc(C(F)(F)F)cn3)[C@H](C)c3ncccn3)c(Cl)cc2nc1N` [Example 437, 2-amino-7-chloro-3-methyl-N-((1R)-1-(2-pyrimidinyl)ethyl)-N-((5-(trifluoromethyl)-2-pyridinyl)methyl)-6-quinolinecarboxamide], for which the Ki on PRMT5/MEP50 was 0.29 nM. Further, the half-inhibitory concentration (IC50) in the assay on HCT116 WT cells was found to be 1350 nM; in the assay with HCT116 MTAP null cells, 76 nM.

Regarding `CC[C@H](c1ncccn1)N(Cc1ccc(C#N)cn1)C(=O)c1ccc2nc(N)c(C)cc2c1` (single isomer, unassigned) [Example 494], the Ki at PRMT5/MEP50 is 0.66 nM. Further, the IC50 is 5420 nM in the assay with HCT116 WT cells and 194 nM in the assay on HCT116 MTAP null cells.

Consider `Cc1cc2cc(C(=O)N(Cc3ccc(C#N)cn3)[C@H](C)c3ccccn3)ccc2nc1N` (single isomer, unassigned) [Example 473], for which, at PRMT5/MEP50, the Ki amounted to 0.17 nM. The IC50 with HCT116 WT cells came out at 5110 nM; in the assay on HCT116 MTAP null cells, 302 nM.

In the case of `[2H]C([2H])([2H])Oc1ccc(CN(C(=O)c2ccc3nc(N)c(C)cc3c2)[C@H](C)c2ncccn2)nc1` (single isomer, unassigned) [Example 493], the Ki at PRMT5/MEP50 turned out to be 0.26 nM. The half-inhibitory concentration (IC50) in the assay on HCT116 WT cells amounted to 4080 nM; in the assay on HCT116 MTAP null cells it was 146 nM.

Consider `Cc1cc2cc(C(=O)N(Cc3ccc(C(F)F)cn3)Cc3ncccc3F)ccc2nc1N` [Example 326, 2-amino-N-((5-(difluoromethyl)-2-pyridinyl)methyl)-N-((3-fluoro-2-pyridinyl)methyl)-3-methyl-6-quinolinecarboxamide], for which the Ki at PRMT5/MEP50 worked out at 0.16 nM. For the same compound, the IC50 worked out at 4320 nM in the assay on HCT116 WT cells and 125 nM in the assay with HCT116 MTAP null cells.

For the compound `Cc1cc2cc(C(=O)N(Cc3ccc(C(F)(F)F)cn3)CC3CC3)c(F)cc2nc1N` [Example 311, 2-amino-N-(cyclopropylmethyl)-7-fluoro-3-methyl-N-((5-(trifluoromethyl)-2-pyridinyl)methyl)-6-quinolinecarboxamide], the Ki on PRMT5/MEP50 came out at 0.21 nM. Also, the figures for the IC50 with HCT116 WT cells and with HCT116 MTAP null cells were 2840 nM and 163 nM, respectively.

Turning to `Cc1cc2cc(C(=O)N(Cc3ccc(N4CCOCC4)nn3)[C@H](C)c3ncccn3)ccc2nc1N` [Example 555, (R)-2-amino-3-methyl-N-((6-morpholinopyridazin-3-yl)methyl)-N-(1-(pyrimidin-2-yl)ethyl)quinoline-6-carboxamide], the Ki on PRMT5/MEP50 came out at 0.07 nM. The IC50 with HCT116 WT cells stood at 3820 nM; with HCT116 MTAP null cells, 125 nM.

In the case of `Cc1cc2cc(C(=O)N(Cc3ccc(Cl)cn3)[C@H](C)c3ncccn3)c(F)cc2nc1N` [Example 415, 2-amino-N-((5-chloro-2-pyridinyl)methyl)-7-fluoro-3-methyl-N-((1R)-1-(2-pyrimidinyl)ethyl)-6-quinolinecarboxamide], the Ki at PRMT5/MEP50 amounted to 0.54 nM. Also, the IC50 in the assay on HCT116 WT cells amounted to 490 nM; with HCT116 MTAP null cells, 39 nM.

With `Cc1cc2cc(C(=O)N(Cc3ccc(C(F)(F)F)cn3)CC(F)(F)F)ccc2nc1N` [Example 442, 2-amino-3-methyl-N-(2,2,2-trifluoroethyl)-N-((5-(trifluoromethyl)-2-pyridinyl)methyl)-6-quinolinecarboxamide], the Ki on PRMT5/MEP50 worked out at 6.87 nM. For the same compound, the IC50 in the assay on HCT116 WT cells is over 10000 nM; in the assay with HCT116 MTAP null cells, 969 nM.

With `Cc1cc2cc(C(=O)N(Cc3ccc(N(C)C)nn3)[C@H](C)c3ncccn3)ccc2nc1N` [Example 554, (R)-2-amino-N-((6-(dimethylamino)pyridazin-3-yl)methyl)-3-methyl-N-(1-(pyrimidin-2-yl)ethyl)quinoline-6-carboxamide], the Ki on PRMT5/MEP50 was determined as 0.07 nM. Further, the IC50 came to 4280 nM in the assay on HCT116 WT cells and 122 nM with HCT116 MTAP null cells.

Consider `C[C@H](c1ncccn1)N(Cc1ccc(C#N)cn1)C(=O)c1ccc2nc(N)c(Br)cc2c1` [Example 417, 2-amino-3-bromo-N-((5-cyano-2-pyridinyl)methyl)-N-((1R)-1-(2-pyrimidinyl)ethyl)-6-quinolinecarboxamide], for which the Ki at PRMT5/MEP50 is 0.33 nM. Also, the IC50 was over 10000 nM in the assay with HCT116 WT cells and 151 nM in the assay on HCT116 MTAP null cells.

With `Cc1cc2cc(C(=O)N(Cc3ccc(C(F)(F)F)cn3)[C@H](C)c3ncccn3)c(F)cc2nc1N` [Example 429, 2-amino-7-fluoro-3-methyl-N-((1R)-1-(2-pyrimidinyl)ethyl)-N-((5-(trifluoromethyl)-2-pyridinyl)methyl)-6-quinolinecarboxamide], on PRMT5/MEP50, the inhibition constant (Ki) is 0.91 nM. The 50% inhibitory concentration (IC50) was 607 nM in the assay with HCT116 WT cells and 39 nM in the assay on HCT116 MTAP null cells.

As for `Cc1cc2cc(C(=O)N(Cc3ccc(C(F)F)cn3)[C@H](C)c3ncccn3)cnc2nc1N` [Example 409, 7-amino-N-((5-(difluoromethyl)-2-pyridinyl)methyl)-6-methyl-N-((1R)-1-(2-pyrimidinyl)ethyl)-1,8-naphthyridine-3-carboxamide], at PRMT5/MEP50, the Ki stood at 0.24 nM. Also, the IC50 was over 10000 nM with HCT116 WT cells and 692 nM with HCT116 MTAP null cells.

Take `Cc1cc2cc(C(=O)N(Cc3ccc(C#N)cn3)[C@@H]3CCOc4cccnc43)ccc2nc1N` (single isomer, unassigned) [Example 519]: the Ki on PRMT5/MEP50 worked out at 0.13 nM. For the same compound, the IC50 with HCT116 WT cells worked out at 1700 nM; in the assay with HCT116 MTAP null cells, 62 nM.

Take `Cc1cc2cc(C(=O)N(Cc3ccc(C(F)(F)F)cn3)[C@H](C)c3cnccn3)ccc2nc1N` (single isomer, unassigned) [Example 482]: the inhibitory constant (Ki) on PRMT5/MEP50 amounted to 0.1 nM. The IC50 worked out at 4320 nM with HCT116 WT cells and 106 nM in the assay on HCT116 MTAP null cells.

Regarding `Cc1cc2cc(C(=O)N(Cc3ccc(C#N)cn3)[C@H](C)c3ncc(F)cc3F)ccc2nc1N` [Example 431, 2-amino-N-((5-cyano-2-pyridinyl)methyl)-N-((1R)-1-(3,5-difluoro-2-pyridinyl)ethyl)-3-methyl-6-quinolinecarboxamide], the Ki on PRMT5/MEP50 turned out to be 0.07 nM. Further, the results for the IC50 in the assay on HCT116 WT cells and in the assay on HCT116 MTAP null cells were 3210 nM and 173 nM, respectively.

As to `Cc1cc2cc(C(=O)N(Cc3ccc(C(F)(F)F)cn3)[C@@H]3CCCN(C)C3=O)ccc2nc1N` (single isomer, unassigned) [Example 460], the Ki on PRMT5/MEP50 was 1.82 nM. Besides, the IC50 is 7850 nM in the assay on HCT116 WT cells and 155 nM with HCT116 MTAP null cells.

On to `Cc1cc2cc(C(=O)N(Cc3ccc(C4=CCOCC4)nn3)[C@H](C)c3ncccn3)ccc2nc1N` [Example 333, 2-amino-N-((6-(3,6-dihydro-2H-pyran-4-yl)-3-pyridazinyl)methyl)-3-methyl-N-((1R)-1-(2-pyrimidinyl)ethyl)-6-quinolinecarboxamide], for which the Ki on PRMT5/MEP50 was 0.002 nM. The IC50 with HCT116 WT cells worked out at 720 nM; in the assay on HCT116 MTAP null cells it was 27 nM.

Turning to `Cc1cc2cc(C(=O)N(Cc3ccc(C#N)cn3)[C@H](C)c3ncccn3)ccc2nc1N` [Example 502, (R)-2-amino-N-((5-cyanopyridin-2-yl)methyl)-3-methyl-N-(1-(pyrimidin-2-yl)ethyl)quinoline-6-carboxamide], on PRMT5/MEP50, the Ki amounted to 0.06 nM. Further, the IC50 in the assay on HCT116 WT cells came to 3260 nM; in the assay with HCT116 MTAP null cells it was 109 nM.

On to `Cc1cc2cc(C(=O)N(Cc3ccc(C(F)(F)F)cn3)[C@H](C)c3ccc(F)cc3)ccc2nc1N` [Example 360, 2-amino-N-((1R)-1-(4-fluorophenyl)ethyl)-3-methyl-N-((5-(trifluoromethyl)-2-pyridinyl)methyl)-6-quinolinecarboxamide], for which, on PRMT5/MEP50, the Ki was 0.08 nM. The IC50 was 4810 nM in the assay on HCT116 WT cells and 199 nM in the assay with HCT116 MTAP null cells.

As to `Cc1cc2cc(C(=O)N(Cc3ccc(Br)nn3)[C@H](C)c3ncn(C)n3)ccc2nc1N` (single isomer, unassigned) [Example 536], the Ki at PRMT5/MEP50 was 0.02 nM. The IC50 in the assay on HCT116 WT cells is 1460 nM; in the assay with HCT116 MTAP null cells, 44 nM.
